Measured values reported in patent US20170190671A1, “BIS(ARYL)CATECHOL DERIVATIVES AS HERBICIDES” (E I DU PONT DE NEMOURS AND COMPANY, priority 2014, published 2017).

Key:
Test in all cases: Test C postemergence
Assay type in all cases: in vivo
[1] = system: Italian ryegrass (Lolium multiflorum); details: Lolium multiflorum, post-emergence, 336 h, Postemergence, scale 0 to 100, read-out: Plant response rating, Ryegrass, Italian
Method in brief: (§1)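 Visual ratings were made 13-15 days after treatment in the greenhouse, scored 0-100 against controls, where 100 means complete control. Treatments used a surfactant-containing non-phytotoxic solvent formulation, applied preemergence to seeds in loam-sand soil or postemergence to 2-18 cm plants (1-4 leaves) in peat-based medium.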

[2] = system: barnyardgrass (Echinochloa crus-galli); details: Echinochloa crus-galli, post-emergence, Postemergence, scale 0 to 100, read-out: Plant response rating, Barnyardgrass
Method in brief: as §1

[3] = system: blackgrass (Alopecurus myosuroides); details: Alopecurus myosuroides, post-emergence, 336 h, Postemergence, scale 0 to 100, read-out: Plant response rating, Blackgrass
Method in brief: as §1

[4] = system: corn (Zea mays); details: Zea mays, post-emergence, 336 h, Postemergence, scale 0 to 100
Method in brief: as §1

[5] = system: giant foxtail (Setaria faberii); details: Setaria faberi, post-emergence, 336 h, Postemergence, scale 0 to 100, read-out: Plant response rating, Foxtail, Giant
Method in brief: as §1

[6] = system: johnsongrass (Sorghum halepense); details: Sorghum halepense, post-emergence, 336 h, Postemergence, scale 0 to 100, read-out: Plant response rating, Johnsongrass
Method in brief: as §1

[7] = system: lambsquarters (Chenopodium album); details: Chenopodium album, post-emergence, 336 h, Postemergence, scale 0 to 100, read-out: Plant response rating, Lambsquarters
Method in brief: as §1

[8] = system: large (Lg) crabgrass (Digitaria sanguinalis); details: Digitaria sanguinalis, post-emergence, 336 h, Postemergence, scale 0 to 100, read-out: Plant response rating, Crabgrass, Large
Method in brief: as §1

[9] = system: morningglory (Ipomoea coccinea); details: Ipomoea, post-emergence, 336 h, Postemergence, scale 0 to 100, read-out: Plant response rating, Morningglory
Method in brief: as §1

[10] = system: oilseed rape (Brassica napus); details: Brassica napus, post-emergence, Postemergence, scale 0 to 100, read-out: Plant response rating, Oilseed Rape
Method in brief: as §1

[11] = system: ragweed (common ragweed, Ambrosia elatior); details: Ambrosia artemisiifolia, post-emergence, 336 h, Postemergence, scale 0 to 100, read-out: Plant response rating, Ragweed
Method in brief: as §1

[12] = system: soybean (Glycine max); details: Glycine max, post-emergence, Postemergence, scale 0 to 100, read-out: Plant response rating, Soybean
Method in brief: as §1

[13] = system: velvetleaf (Abutilon theophrasti); details: Abutilon theophrasti, post-emergence, Postemergence, scale 0 to 100, read-out: Plant response rating, Velvetleaf
Method in brief: as §1

[14] = system: winter wheat (Triticum aestivum); details: Triticum aestivum, post-emergence, 336 h, Postemergence, scale 0 to 100, read-out: Plant response rating, Wheat
Method in brief: as §1

Molecule N#Cc1cccc(Oc2ncc(Cl)cn2)c1Oc1ccc(Cl)cc1 [Compound 36] has a pest or weed control at 31 g/ha ([1]; 31 g ai/ha) of 5%, a pest or weed control at 62 g/ha ([1]; 62 g ai/ha) of 10% and a pest or weed control at 125 g/ha ([1]; 125 g ai/ha) of 30%. The pest or weed control at 16 g/ha ([2]; 16 g ai/ha) was 10%, the pest or weed control at 31 g/ha ([2]; 31 g ai/ha) was 10% and the pest or weed control at 62 g/ha ([2]; 62 g ai/ha) was 15%. The pest or weed control at 125 g/ha ([2]; 125 g ai/ha) was 20%, the pest or weed control at 16 g/ha ([3]; 16 g ai/ha) was 5% and the pest or weed control at 31 g/ha ([3]; 31 g ai/ha) was 5%. The pest or weed control at 62 g/ha ([3]; 62 g ai/ha) was 30%, the pest or weed control at 125 g/ha ([3]; 125 g ai/ha) was 30% and the Corn plant response rating (crop injury, 0 = no effect, 100 = complete kill) at 16 g/ha ([4]; 16 g ai/ha) was 10%. It also gave a Corn plant response rating (crop injury, 0 = no effect, 100 = complete kill) at 31 g/ha ([4]; 31 g ai/ha) of 15%, a Corn plant response rating (crop injury, 0 = no effect, 100 = complete kill) at 62 g/ha ([4]; 62 g ai/ha) of 20% and a Corn plant response rating (crop injury, 0 = no effect, 100 = complete kill) at 125 g/ha ([4]; 125 g ai/ha) of 20%. The pest or weed control at 16 g/ha ([5]; 16 g ai/ha) was 5%, the pest or weed control at 31 g/ha ([5]; 31 g ai/ha) was 5% and the pest or weed control at 62 g/ha ([5]; 62 g ai/ha) was 10%. The pest or weed control at 125 g/ha ([5]; 125 g ai/ha) was 10%, the pest or weed control at 16 g/ha ([6]; 16 g ai/ha) was 20% and the pest or weed control at 31 g/ha ([6]; 31 g ai/ha) was 30%. It also gave a pest or weed control at 62 g/ha ([6]; 62 g ai/ha) of 35%, a pest or weed control at 125 g/ha ([6]; 125 g ai/ha) of 35% and a pest or weed control at 16 g/ha ([7]; 16 g ai/ha) of 90%. For the same molecule, the pest or weed control at 31 g/ha ([7]; 31 g ai/ha) was 95%, the pest or weed control at 62 g/ha ([7]; 62 g ai/ha) was 98% and the pest or weed control at 125 g/ha ([7]; 125 g ai/ha) was 100%. It also gave a pest or weed control at 16 g/ha ([8]; 16 g ai/ha) of 5%, a pest or weed control at 31 g/ha ([8]; 31 g ai/ha) of 10% and a pest or weed control at 62 g/ha ([8]; 62 g ai/ha) of 10%. It also gave a pest or weed control at 125 g/ha ([8]; 125 g ai/ha) of 20%, a pest or weed control at 31 g/ha ([9]; 31 g ai/ha) of 60% and a pest or weed control at 62 g/ha ([9]; 62 g ai/ha) of 65%. It also gave a pest or weed control at 125 g/ha ([9]; 125 g ai/ha) of 70%, a plant injury at 31 g/ha ([10]; 31 g ai/ha) of 85% and a plant injury at 62 g/ha ([10]; 62 g ai/ha) of 90%. For the same molecule, the plant injury at 125 g/ha ([10]; 125 g ai/ha) was 98%, the pest or weed control at 31 g/ha ([11]; 31 g ai/ha) was 45% and the pest or weed control at 62 g/ha ([11]; 62 g ai/ha) was 40%. The pest or weed control at 125 g/ha ([11]; 125 g ai/ha) was 75%, the plant injury at 31 g/ha ([12]; 31 g ai/ha) was 25% and the plant injury at 62 g/ha ([12]; 62 g ai/ha) was 50%. For the same molecule, the plant injury at 125 g/ha ([12]; 125 g ai/ha) was 45%, the pest or weed control at 31 g/ha ([13]; 31 g ai/ha) was 45% and the pest or weed control at 62 g/ha ([13]; 62 g ai/ha) was 70%. It also gave a pest or weed control at 125 g/ha ([13]; 125 g ai/ha) of 80%, a plant injury at 31 g/ha ([14]; 31 g ai/ha) of 0% and a plant injury at 62 g/ha ([14]; 62 g ai/ha) of 0%. It also gave a plant injury at 125 g/ha ([14]; 125 g ai/ha) of 5%.
